The assay deals with T1, BT3780 (Bacteroides thetaiotaomicron, UniProt Q8A186).
T1 construct: gene BT_3780; signal peptide residues 1-16; residues 17-384 built in crystal (C-terminal Pro printed as 383); monomer
T1 sequence (Q8A186 17-383): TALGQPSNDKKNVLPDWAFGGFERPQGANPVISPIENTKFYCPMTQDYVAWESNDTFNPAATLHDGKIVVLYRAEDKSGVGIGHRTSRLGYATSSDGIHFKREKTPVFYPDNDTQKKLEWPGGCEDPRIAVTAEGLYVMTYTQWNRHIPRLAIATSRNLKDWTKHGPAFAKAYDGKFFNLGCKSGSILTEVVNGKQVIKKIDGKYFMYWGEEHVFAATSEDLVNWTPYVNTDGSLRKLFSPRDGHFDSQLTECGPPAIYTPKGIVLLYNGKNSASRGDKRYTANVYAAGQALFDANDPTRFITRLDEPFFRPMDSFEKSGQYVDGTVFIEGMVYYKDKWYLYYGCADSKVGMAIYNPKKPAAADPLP
The assay can be described thus: X-ray crystal structure, […] Å. It is filed as binding. The following applies: 0.3 M mannose in crystallisation; bound in -1 and +1 subsites of the active site.

Structures are written as SMILES.

As to `OC[C@H]1OC(O)[C@@H](O)[C@@H](O)[C@@H]1O` (stereo partly shown) [mannose], the “X-ray crystal structure, 1.35 Å” value was “The pocket houses two mannose residues (the crystal structure of BT3780 was obtained in the presence”.

These data come from paper PMC4599007, “The GH130 Family of Mannoside Phosphorylases Contains Glycoside Hydrolases That Target β-1,2-Mannosidic Linkages in Candida Mannan” (The Journal of Biological Chemistry, 2015).
